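Briefly, cells in 96-well plates were exposed to five compound concentrations for 48 h, and endpoints were estimated by linear interpolation. The concentration for full growth arrest is given as TGI.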
What was measured:
Assay in all cases: DTP human tumour cell line panel, 48 h
DU-145 prostate = test system: DU-145 prostate
HCT-116 colon = test system: HCT-116 colon
HL-60(TB) leukemia = test system: HL-60(TB) leukemia
LOX IMVI melanoma = test system: LOX IMVI melanoma
MDA-MB-435 = test system: MDA-MB-435
NCI-H23 lung = test system: NCI-H23 lung
NCI/ADR-RES ovarian = test system: NCI/ADR-RES ovarian
SR leukemia = test system: SR leukemia
UACC-62 melanoma = test system: UACC-62 melanoma
EKVX NSCLC = test system: EKVX NSCLC

Row | SMILES | TGI (DU-145 prostate) [µM] | TGI (HCT-116 colon) [µM] | TGI (HL-60(TB) leukemia) [µM] | TGI (LOX IMVI melanoma) [µM] | TGI (MDA-MB-435) [µM] | TGI (NCI-H23 lung) [µM] | TGI (NCI/ADR-RES ovarian) [µM] | TGI (SR leukemia) [µM] | TGI (UACC-62 melanoma) [µM] | TGI (EKVX NSCLC) [µM]
1 | O=[N+]([O-])c1ccc(NC(=S)N=Nc2c(O)[nH]c3ccc(Br)cc23)cc1 | 24.2 | 18 | 7.09 | 22.4 | 25.4 | 12.9 | 6.13 | 42.7 | 18.3 | 
2 | c1ccc(/C(=N/Nc2ccccn2)c2ncccn2)cc1 | > 100 | > 100 | > 100 |  | > 100 | > 37.6 | 4.67 | > 27.5 | 12.2 | 5.73
3 | C=c1c(OC)c(OC)c(O)c2c1=c1cc([N+](=O)[O-])cc(OC)c1=N2 | > 100 | > 100 | > 100 | > 100 | > 100 | > 100 | > 100 |  | > 100 | > 100
4 | CC1CC(=O)Nc2nc3ccccc3n21 (stereo not given) |  | > 100 | > 100 | > 100 | > 100 | > 100 | > 100 | > 100 | > 100 | > 100
5 | NC(N)=Nc1ncccc1[N+](=O)[O-] |  | > 100 | 44.4 | > 100 |  | > 100 | > 100 |  | > 100 | 
6 | CC(=O)OCC(OC(C)=O)C1C[C@H]2O[C@@H]3[C@H](C[C@H]2O1)O[C@@]1(C[C@@H]3C)C[C@H](C)[C@@H]2O[C@]3(C[C@@H]2O1)C[C@H]1O[C@H]2[C@H](C)[C@H]4OC(=O)CC5CC[C@H]6OC7[C@H]8O[C@]9(CC[C@H]%10CC(O)(CO)[C@H](CC[C@H]%11C[C@@H](C)C(O)(CO)C(C[C@@H]4O[C@H]2C[C@H]1O3)O%11)O%10)CC8O[C@@H]7[C@@H](O9)[C@H]6O5 (stereo not given in full) | 0.0688 | > 0.452 |  | > 0.414 | 0.0139 |  | > 0.205 | > 1 | > 1 | > 1
7 | O=C(N/N=C/c1ccco1)c1cc(I)cc(I)c1O | > 50 | > 50 | 27.7 | > 50 | > 50 | > 50 | > 50 |  | > 50 | 37.2
8 | Cc1nc(C)c(Cc2ccccc2)o1 | > 100 | > 100 | > 100 | > 100 | > 100 | > 100 | > 100 |  | > 100 | > 100
9 | COC1(OC)CCCCC2c3cccc(OC(C)=O)c3C21OC(C)=O (stereo not given) |  | > 100 | > 100 | > 100 |  | > 100 |  | > 100 | > 100 | > 100
10 | CNC(=O)N(CCC#N)[C@H]1CCCC[C@@H]1N(C(=O)NC)c1ccccc1 | > 100 | > 100 |  | > 100 | > 100 | > 100 | > 100 | > 100 | > 100 | > 100
11 | Cc1cn(C(C)OCCN2C(=O)c3ccccc3C2=O)c(=O)[nH]c1=O (stereo not given) | > 100 | > 100 |  | > 100 | > 100 | > 100 | > 100 | > 100 | > 100 | > 100
12 | COC(=O)c1ccc(C=Nc2ccc(S(N)(=O)=O)cc2)cc1 | > 100 | > 100 | > 100 | > 100 | > 100 |  | > 100 | > 100 | > 100 | > 100
13 | O=c1c(-c2ccc(Cl)cc2)nnc2n(Cc3ccccc3)c3ccccc3n12 | > 100 | > 100 | > 100 | > 100 | > 100 | > 100 | > 100 | > 100 |  | > 100
14 | CN(C)S(=O)(=O)Nc1nnc(S(N)(=O)=O)s1 | > 100 | > 100 | > 100 |  | > 100 | > 100 | > 100 | > 100 | > 100 | > 100
15 | OC1(c2ccc(Cl)cc2)c2ccc3ccccc3c2C2=N[C@H]3CCCC[C@@H]3N21 (stereo not given in full) | 37.2 | 20.5 | > 100 | 10.5 | > 100 | > 100 | 5.99 |  | 41.4 | 24
16 | Clc1ccc(OCc2nnc(CCCCCCCCc3nnc(COc4ccc(Cl)cc4)n3Nc3ccccc3)n2Nc2ccccc2)cc1 | > 80.9 | 24.2 |  | 42.6 | > 63.4 | > 100 | 81.5 |  | 38.8 | > 87.9
17 | NC1CNC(=O)c2c(Cl)sc(Cl)c21 (stereo not given) | > 100 | > 100 |  | > 100 | > 100 | > 100 | > 100 | > 100 | > 100 | > 100
18 | O=C(O)C(CO)NC(=O)n1c2ccccc2c2ccccc21 (stereo not given) |  | > 100 | > 100 | > 100 |  | > 100 |  | > 100 | > 100 | > 100
19 | O=C(CC1=NCCN1)c1ccccc1 |  | > 750 | > 750 | > 750 |  | > 750 | > 750 |  | > 750 | > 750
20 | CN(C)CCn1c(=O)c2ccc(NCCCN(C)CCCNc3ccc4c(=O)n(CCN(C)C)c(=O)n5c6ccc([N+](=O)[O-])cc6c(=O)c3c45)c3c(=O)c4cc([N+](=O)[O-])ccc4n(c1=O)c23 | 0.39 | 0.118 | 1.56 |  | 0.097 | 0.171 |  |  | 0.318 | 1.32
21 | O=c1[nH]nc(-c2ccccc2)c2[nH]c(-c3ccccc3)cc12 | > 100 | > 100 | > 100 | > 100 | > 100 | > 100 | > 100 | > 100 |  | > 100
22 | O=C(O)C(CS)N=c1c2ccccc2n(O)c2ccccc12 (stereo not given) |  | > 100 | > 100 | > 100 |  | > 100 |  |  | > 100 | > 100
23 | Cc1cc2ncc3c(=O)n(NS(=O)(=O)c4ccc(N)cc4)ccc3n2n1 | > 100 | > 100 | > 100 | > 100 | > 100 | > 100 |  |  | > 100 | > 100
